Assay results: PubChem BioAssay AID1963848 (Molecular Pharmacology Branch, DTP, NCI, 2024)
Where “and” joins values, the source holds several entries; their conditions need not be identical. Identical values can stand only once.

Tested on: 379773-124-R-J2-PDC spheroid viability
Assay: Anticancer human tumor 379773-124-R-J2-PDC patient-derived endometrial carcinoma cell line growth inhibition [POLQ]
Settings: spheroids with HUVEC and MSC; for viability, T/C: stronger effect = lower value; for IC50: curve of compound
Experimental: Multicellular complex tumor spheroid response to Polymerase (POL) inhibitors (novobiocin, ART-558, RP6685) in combination with a variety of drugs and investigational agents in selected tumor cell lines
The POL inhibitors (novobiocin, ART-558, and RP6685) were evaluated both individually and in combination with standard of care and investigational anticancer small molecules within a complex spheroid model of solid tumors. . Complex spheroids include a stromal component modeled by human endothelial cells (HUVEC) and fibroblasts modeled by human mesenchymal stem cells (MSCs). The concentration ranges selected for each drug and investigational agent were based upon clinically achievable concentrations if the clinical Cmax of the agent was known.
Compounds. The drugs and investigational agents: novobiocin (NSC847541), ART-558 (NSC835418), RP-6685 (NSC848927), peposertib (NSC802822), ceralasertib (NSC780249), elimusertib (NSC800525), camonsertib (NSC841442), AZD-1390 (NSC803789), olaparib (NSC753686), talazoparib (NSC767125), rucaparib (NSC756644), sotorasib (NSC818433), MRTX-1133 (NSC836407), SN-38 (NSC673596), topotecan (NSC609699), epotoside (NSC141540), doxorubicin (NSC123127), gemcitabine (NSC613327), 5-fluorouracil (NSC19893), paclitaxel (NSC125973), vemurafenib (NSC761431), MSA-2 (NSC828583), SN-011 (NSC837082), adavosertib (NSC754352), prexasertib (NSC758257), carboplatin (NSC241240) and oxaliplatin (NSC266046), were obtained from the National Cancer Institute (NCI) Developmental Therapeutics Program Chemical Repository (21). The FDA-approved anticancer drug set is available from the Developmental Therapeutics Program at https://dtp.cancer.gov/organization/dscb/obtaining/. […] The stock solutions were prepared in dimethyl sulfoxide (DMSO, Sigma-Aldrich, St. Louis, MO, cat. D2650), except for the platinum compounds which were prepared in saline (Quality Biological, Gaithersburg, MD, cat. 114-055-101), at 800-fold the tested concentration and stored at -70 degrees C prior to their use. All drugs and investigational agents were tested over a range starting from a high concentration at or near the clinical Cmax and decreasing in half-log increments. If the clinical Cmax for an agent had not been determined, the highest concentration tested was 10 microM, except for SN-38, which was tested at a high concentration of 1 microM.
Cell Culture. All cells were maintained in an incubator at 37 degrees C and 5% CO2 with 95% humidity. The PDC lines were cultured according to standard operating procedures established by the NCI PDMR (https://pdmr.cancer.gov). Table 3 of the manuscript, lists the cell lines along with the number of the three cell types plated to form the mct-spheroids and media for tumor cell growth. After thawing, all PDC lines, except 997537-175-T-J1-PDC and 415267-285-R-J2-PDC, were cultured in Matrigel-coated flasks prepared with a working solution of 1X Ham's F-12 nutrient mix, without supplementation (Thermo Fisher Scientific, cat. 11765054), 100 U/mL penicillin-streptomycin (Thermo Fisher Scientific, cat. 15140122), and 2.5% Matrigel (Corning Inc., Corning, NY, cat. 354248) for the first three passages. The two PDC lines 997537-175-T-J1-PDC and 415267-285-R-J2-PDC were cultured on uncoated flasks. The 857933-349-R-J2-PDC line was cultured in 6C/Colon 1B media containing advanced DMEM/F-12 (Thermo Fisher Scientific, cat. 12634028), 10 mM HEPES (Thermo Fisher Scientific, cat. 15630080), 1X GlutaMAX supplement (Thermo Fisher Scientific, cat. 35050061), 0.1 mg/mL primocin (InvivoGen, San Diego, CA, cat. ant-pm-2), 10% defined fetal bovine serum, heat inactivated (HyClone Laboratories Inc., Logan, UT, cat. SH30070.03HI), 50% L-WRN conditioned media (ATCC, cat. CRL-3276), 1.25 mM N-Acetyl-L-cysteine (Sigma-Aldrich, cat. A9165), 10 mM nicotinamide (Sigma-Aldrich, cat. N0636), 1X B-27 supplement (Thermo Fisher Scientific, cat. 17504044), 1X N-2 supplement (Thermo Fisher Scientific, cat. […]
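Note: spheroids exposed to drugs for seven days before readout.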
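Throughout, for viability, T/C: percent viability relative to DMSO vehicle control taken as 100%.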

| Structure (SMILES) | viability, T/C (compound 0.0316 µM) | viability, T/C (compound 0.1 µM) | viability, T/C (compound 0.316 µM) | viability, T/C (compound 1 µM) | viability, T/C (compound 3.16 µM) | viability, T/C (compound 10 µM) | IC50 | viability, T/C (compound 0.00316 µM) | viability, T/C (compound 0.01 µM) | viability, T/C (compound 0.00949 µM) | viability, T/C (compound 0.03 µM) | viability, T/C (compound 0.0949 µM) | viability, T/C (compound 0.3 µM) | viability, T/C (compound 0.949 µM) | viability, T/C (compound 3 µM) | viability, T/C (compound 0.000316 µM) | viability, T/C (compound 0.001 µM) |
| --- | --- | --- | --- | --- | --- | --- | --- | --- | --- | --- | --- | --- | --- | --- | --- | --- | --- |
| C#Cc1c(F)ccc2cc(O)cc(-c3ncc4c(N5CC6CCC(C5)N6)nc(OCC56CCCN5CC(F)C6)nc4c3F)c12 (stereo unspecified) | 89.7% and 98.6% and 95.6% | 75.8% and 86.8% and 84.9% | 76.9% and 105% and 79.6% | 82.7% and 98.4% and 90.6% | 87.1% and 98.4% and 87.7% | 81.7% and 93% and 90.7% | > 10000 nM | – | – | – | – | – | – | – | – | – | – |
| C=CC(=O)N1CCN(c2nc(=O)n(-c3c(C)ccnc3C(C)C)c3nc(-c4c(O)cccc4F)c(F)cc23)C(C)C1 (stereo unspecified) | 97.8% and 95.1% and 86.4% | 86.7% and 106% and 91.7% | 70% and 103% and 89.9% | 86.1% and 93.1% and 87.7% | 88.5% and 95.5% and 97.6% | 78.4% and 95.8% and 85.6% | > 10000 nM | – | – | – | – | – | – | – | – | – | – |
| C=CCn1c(=O)c2cnc(Nc3ccc(N4CCN(C)CC4)cc3)nc2n1-c1cccc(C(C)(C)O)n1 | 86.5% and 84.1% and 94.8% | 91.2% and 98.4% and 89.9% | 67.7% and 74.7% and 79.6% | 2.93% and 2.98% and 6.11% | – | – | 434 nM and 470 nM and 503 nM | 95.2% and 88.4% and 90.7% | 83.8% and 82.6% and 88.3% | – | – | – | – | – | – | – | – |
| CC(=O)O[C@H]1C(=O)[C@@]2(C)[C@H]([C@H](OC(=O)c3ccccc3)[C@]3(O)C[C@H](OC(=O)[C@H](O)[C@@H](NC(=O)c4ccccc4)c4ccccc4)C(C)=C1C3(C)C)[C@]1(OC(C)=O)CO[C@@H]1C[C@@H]2O | – | – | – | – | – | – | < 9.49 nM | – | – | 21.2% and 20.1% and 16.9% | 7.51% and 10.1% and 8.5% | 14.2% and 12.2% and 9.35% | 10.6% and 11.8% and 8.52% | 9.35% and 10.1% and 7.28% | 7.9% and 9.86% and 6.94% | – | – |
| CC(C)n1c(=O)n(C)c2cnc3cc(F)c(-c4ccc(OCCCN5CCCCC5)nc4)cc3c21 | 77.5% and 102% and 83.2% | 79.5% and 84.1% and 87.8% | 78.7% and 88.7% and 68% | 76.8% and 87.2% and 74.2% | 80% and 93.2% and 82.2% | 53.6% and 72.2% and 62.8% | > 10000 nM | – | – | – | – | – | – | – | – | – | – |
| CC1COCCN1c1cc(-c2ccnn2C)c2ccnc(-c3ccn[nH]3)c2n1 (stereo unspecified) | 75.5% and 78.8% and 88.4% | 53.1% and 47.6% and 54.7% | 11.6% and 8.88% and 12.7% | 8.44% and 8.27% and 10.5% | 10.4% and 10.8% and 12.3% | 5.02% and 6.19% and 8.08% | 109 nM and 91.5 nM and 114 nM | – | – | – | – | – | – | – | – | – | – |
| CC1COCCN1c1cc(C2(S(C)(=N)=O)CC2)nc(-c2ccnc3[nH]ccc23)n1 (stereo unspecified) | 78.3% and 87.6% and 81.5% | 69.2% and 89.3% and 88.1% | 71.7% and 86.7% and 72.9% | 80.9% and 82.7% and 76.1% | 34.5% and 44.9% and 28.5% | 5.53% and 11.9% and 6.3% | 2040 nM and 2710 nM and 1870 nM | – | – | – | – | – | – | – | – | – | – |
| CCCS(=O)(=O)Nc1ccc(F)c(C(=O)c2c[nH]c3ncc(-c4ccc(Cl)cc4)cc23)c1F | 95.9% and 86.2% and 78.9% | 93.8% and 93.3% and 98.6% | 87.6% and 96.1% and 91.3% | 87% and 91% and 69% | 84.2% and 84% and 74.1% | 57.6% and 51.9% and 57.4% | > 10000 nM | – | – | – | – | – | – | – | – | – | – |
| CC[C@@]1(O)C(=O)OCc2c1cc1n(c2=O)Cc2cc3c(CN(C)C)c(O)ccc3nc2-1 | 45.8% and 43% and 45.2% | 14.7% and 26.1% and 10.6% | – | – | – | – | 27.2 nM and 26.3 nM and 27.1 nM | 97.8% and 92.2% and 75.9% | 78.5% and 86.5% and 81.9% | – | – | – | – | – | – | 86.7% and 95.5% and 87.2% | 82.9% and 87.3% and 91.6% |
| CCc1c2c(nc3ccc(O)cc13)-c1cc3c(c(=O)n1C2)COC(=O)[C@]3(O)CC | 6.11% and 11.4% and 5.39% | 2.46% and 4.85% and 2.38% | 1.23% and 4.28% and 1.04% | 1.89% and 0.95% and 0.4% | – | – | < 3.16 nM | 45.6% and 49.3% and 46.8% | 11.9% and 17.2% and 7.71% | – | – | – | – | – | – | – | – |
| CCc1cc2c(N3CCc4c(cc(Cn5ccnc5)cc4-c4cn(C)nc4C(F)(F)F)C3=O)cc(C)nc2c(OC)n1 | 70.7% and 94% and 69.3% | 73.2% and 69.1% and 70.4% | 54.8% and 60.2% and 68.2% | 55.9% and 57.2% and 61.2% | 41.9% and 60.5% and 56.2% | 40% and 47.3% and 48.9% | 1260 nM and > 10000 nM and 8120 nM | – | – | – | – | – | – | – | – | – | – |
| CCc1cc2c(N3CCc4c(cc(Cn5ccnc5)cc4-c4cn(C)nc4C(F)(F)F)C3=O)ccnc2c(OC)n1 | 72.1% and 87.3% and 77.8% | 65% and 74.8% and 74.2% | 53.4% and 64% and 69.2% | 54.6% and 64.1% and 67.8% | 63.3% and 59.9% and 57.4% | 37.2% and 57.8% and 53.6% | 3400 nM and > 10000 nM | – | – | – | – | – | – | – | – | – | – |
| CNCc1ccc(-c2[nH]c3cc(F)cc4c3c2CCNC4=O)cc1 | 79.5% and 90.1% and 98.3% | 85.4% and 95.9% and 92.6% | 76.9% and 93.3% and 85.4% | 77.7% and 96% and 82.6% | 71.9% and 100% and 80.1% | 56.2% and 82.1% and 66.5% | > 10000 nM | – | – | – | – | – | – | – | – | – | – |
